The text below walks through data of US7294635B2 (Portola Pharmaceuticals, Inc., priority 2003, dated 2007).

Molecules are shown by their SMILES.

For this assay, the system named is ADP-induced human platelet aggregation. Briefly: Inhibition of ADP-mediated platelet aggregation in vitro using platelet-rich plasma (PRP assay). Type of assay: cell-based. The conditions noted are these: 5 min; human platelet-rich plasma, 2 μM ADP, 96-well microtiter, OD 650 nm at 5 min; read-out: Activity in the PRP assay. The method, then:
This Example Provides an Assay for the Inhibition of ADP-Mediated Platelet Aggregation In Vitro Using Platelet-Rich Plasma (PRP)
Platelet-rich plasma (PRP) is prepared by centrifugation at 160×g for 20 minutes at room temperature. PRP is collected, and the platelet concentration is determined using a Coulter counter or hemocytometer (platelet concentration should be 2-4×10^8 platelets per mL).
Inhibition of ADP-dependent aggregation is preferably determined in 96-well flat-bottom microtiter plates using a microtiter plate shaker and plate reader similar to the procedure described by Frantantoni et al., Am. J. Clin. Pathol. […] All steps are performed at room temperature. The total reaction volume of 0.2 mL/well includes: PRP (˜6×10^7 total platelets in the presence of plasma), serial dilutions of test compounds (buffer for control wells) in 0.6% DMSO. After about 5 minutes preincubation at room temperature, ADP is added to a final concentration of 2 μM which induces submaximal aggregation. Buffer is added instead of ADP to one set of control wells (ADP-control). The OD of the samples is then determined at 650 nm using a microtiter plate reader (Softmax, Molecular Devices, Menlo Park, Calif.) resulting in the 0 minute reading. The plates are then agitated for 5 min on a microtiter plate shaker and the 5 minute reading is obtained in the plate reader. Aggregation is calculated from the decrease of OD at 650 nm at t=5 minutes compared to t=0 minutes and is expressed as % of the decrease in the ADP control samples after correcting for changes in the unaggregated control samples.
With `CNc1cc2ccn(-c3ccc(NC(=O)NS(=O)(=O)c4ccc(Cl)s4)nc3)c(=O)c2cc1F` [Example 59, 5-chloro-N-[({5-[7-fluoro-6-(methylamino)-1-oxoisoquinolin-2(1H)-yl]pyridin-2-yl}amino)carbonyl]thiophene-2-sulfonamide], the IC50 was less than 10 µM.
Consider `CNc1cc2ccn(-c3cnc(NC(=O)NS(=O)(=O)c4ccc(Cl)s4)c(C)c3)c(=O)c2cc1F` [Example 60, 5-chloro-N-[({5-[7-fluoro-6-(methylamino)-1-oxoisoquinolin-2(1H)-yl]-3-methylpyridin-2-yl}amino)carbonyl]thiophene-2-sulfonamide], for which the IC50 was less than 10 µM.
The figure for `CNc1cc2ccn(-c3cnc(NC(=O)NS(=O)(=O)c4ccc(Cl)s4)nc3)c(=O)c2cc1F` [Example 61, 5-chloro-N-[({5-[7-fluoro-6-(methylamino)-1-oxoisoquinolin-2(1H)-yl]pyrimidin-2-yl}amino)carbonyl]thiophene-2-sulfonamide] is less than 10 µM; for `CNc1cc2ccn(-c3ccc(NC(=O)NS(=O)(=O)c4ccc(Cl)s4)cc3COC(C)=O)c(=O)c2cc1F` [Example 62, 5-[({[(5-chlorothien-2-yl)sulfonyl]amino}carbonyl)amino]-2-[7-fluoro-6-(methylamino)-1-oxoisoquinolin-2(1H)-yl]benzyl acetate] it is 10 to 30 µM.
Take `CNc1cc2ccn(-c3ccc(NC(=O)NS(=O)(=O)c4ccc(Cl)s4)cc3CO)c(=O)c2cc1F` [Example 63, 5-chloro-N-({[4-[7-fluoro-6-(methylamino)-1-oxoisoquinolin-2(1H)-yl]-3-(hydroxymethyl)phenyl]amino}carbonyl)thiophene-2-sulfonamide]: the IC50 is less than 10 µM.
For the molecule `CCOC(=O)c1cc(NC(=O)NS(=O)(=O)c2ccc(Cl)s2)ccc1-n1ccc2cc(NC)c(F)cc2c1=O` [Example 65, ethyl 5-[({[(5-chlorothien-2-yl)sulfonyl]amino}carbonyl)amino]-2-[7-fluoro-6-(methylamino)-1-oxoisoquinolin-2(1H)-yl]benzoate], the IC50 was 10 to 30 µM.
The figure for `CNc1cc2ccn(-c3ccc(NC(=O)NS(=O)(=O)c4ccc(Cl)s4)cc3C#N)c(=O)c2cc1F` [Example 67, 5-chloro-N-[({3-cyano-4-[7-fluoro-6-(methylamino)-1-oxoisoquinolin-2(1H)-yl]phenyl}amino)carbonyl]thiophene-2-sulfonamide] is 10 to 30 µM; for `CNc1cc2ccn(-c3ccc(NC(=O)NS(=O)(=O)c4ccc(Cl)s4)cc3C(N)=O)c(=O)c2cc1F` [Example 68, 5-[({[(5-chlorothien-2-yl)sulfonyl]amino}carbonyl)amino]-2-[7-fluoro-6-(methylamino)-1-oxoisoquinolin-2(1H)-yl]benzamide] it is 10 to 30 µM.
Take `CNc1cc2ccn(-c3ccc(NC(=O)NS(=O)(=O)c4ccc(Cl)s4)cc3C(C)=O)c(=O)c2cc1F` [Example 70, N-[({3-acetyl-4-[7-fluoro-6-(methylamino)-1-oxoisoquinolin-2(1H)-yl]phenyl}amino)carbonyl]-5-chlorothiophene-2-sulfonamide]: the IC50 fell in the range of 10 to 30 µM.
The figure for `CCc1cc(NC(=O)NS(=O)(=O)c2ccc(Cl)s2)ccc1-n1ccc2cc(NC)c(F)cc2c1=O` [Example 73, 5-chloro-N-[({3-ethyl-4-[7-fluoro-6-(methylamino)-1-oxoisoquinolin-2(1H)-yl]phenyl}amino)carbonyl]thiophene-2-sulfonamide] is 10 to 30 µM.
Next, `CNc1cc2ccn(-c3ccc(NC(=O)NS(=O)(=O)c4ccc(Cl)s4)cc3C(C)O)c(=O)c2cc1F` (centres unmarked) [Example 74, 5-chloro-N-({[4-[7-fluoro-6-(methylamino)-1-oxoisoquinolin-2(1H)-yl]-3-(1-hydroxyethyl)phenyl]amino}carbonyl)thiophene-2-sulfonamide]: greater than 30 µM.
Regarding `CNc1cc2ccn(-c3ccc(NC(=O)NS(=O)(=O)c4ccc(Cl)s4)c(OC)c3)c(=O)c2cc1F` [Example 75, 5-chloro-N-[({4-[7-fluoro-6-(methylamino)-1-oxoisoquinolin-2(1H)-yl]-2-methoxyphenyl}amino)carbonyl]thiophene-2-sulfonamide], the IC50 is less than 10 µM.
Regarding `CNc1cc2ccn(-c3ccc(NC(=O)NS(=O)(=O)c4ccc(Cl)s4)c(OCOC)c3)c(=O)c2cc1F` [Example 76, 5-chloro-N-({[4-[7-fluoro-6-(methylamino)-1-oxoisoquinolin-2(1H)-yl]-2-(methoxymethoxy)phenyl]amino}carbonyl)thiophene-2-sulfonamide], the IC50 was less than 10 µM.
Next, `CNc1cc2ccn(-c3ccc(NC(=O)NS(=O)(=O)c4ccc(Cl)s4)c(O)c3)c(=O)c2cc1F` [Example 77, 5-chloro-N-[({4-[7-fluoro-6-(methylamino)-1-oxoisoquinolin-2(1H)-yl]-2-hydroxyphenyl}amino)carbonyl]thiophene-2-sulfonamide]: less than 10 µM.
Consider `CNc1cc2ccn(-c3ccc(NC(=O)NS(=O)(=O)c4ccc(Cl)s4)c(OCc4ccccc4)c3)c(=O)c2cc1F` [Example 79, N-[({2-(benzyloxy)-4-[7-fluoro-6-(methylamino)-1-oxoisoquinolin-2(1H)-yl]phenyl}amino)carbonyl]-5-chlorothiophene-2-sulfonamide], for which the IC50 is greater than 30 µM.
As for `CCCCNc1cc(-n2ccc3cc(NC)c(F)cc3c2=O)ccc1NC(=O)NS(=O)(=O)c1ccc(Cl)s1` [Example 80, N-[({2-(butylamino)-4-[7-fluoro-6-(methylamino)-1-oxoisoquinolin-2(1H)-yl]phenyl}amino)carbonyl]-5-chlorothiophene-2-sulfonamide], the IC50 is greater than 30 µM.
In the case of `CCc1cc(-n2ccc3cc(NC)c(F)cc3c2=O)ccc1NC(=O)NS(=O)(=O)c1ccc(Cl)s1` [Example 81, 5-chloro-N-[({2-ethyl-4-[7-fluoro-6-(methylamino)-1-oxoisoquinolin-2(1H)-yl]phenyl}amino)carbonyl]thiophene-2-sulfonamide], the IC50 was less than 10 µM.
Turning to `CNc1cc2ccn(-c3ccc(NC(=O)NS(=O)(=O)c4ccc(Cl)s4)c(OCCOC(C)=O)c3)c(=O)c2cc1F` [Example 82, 2-{2-[({[(5-chlorothien-2-yl)sulfonyl]amino}carbonyl)amino]-5-[7-fluoro-6-(methylamino)-1-oxoisoquinolin-2(1H)-yl]phenoxy}ethyl acetate], the IC50 fell in the range of 10 to 30 µM.
For `CNc1cc2ccn(-c3ccc(NC(=O)NS(=O)(=O)c4ccc(Cl)s4)c(OCCO)c3)c(=O)c2cc1F` [Example 83, 5-chloro-N-({[4-[7-fluoro-6-(methylamino)-1-oxoisoquinolin-2(1H)-yl]-2-(2-hydroxyethoxy)phenyl]amino}carbonyl)thiophene-2-sulfonamide], the IC50 is less than 10 µM.
As to `CNc1cc2ccn(-c3ccc(NC(=O)NS(=O)(=O)c4ccc(Cl)s4)c(OC(C)C)c3)c(=O)c2cc1F` [Example 84, 5-chloro-N-[({4-[7-fluoro-6-(methylamino)-1-oxoisoquinolin-2(1H)-yl]-2-isopropoxyphenyl}amino)carbonyl]thiophene-2-sulfonamide], the IC50 was 10 to 30 µM.
`CNc1cc2ccn(-c3ccc(NC(=O)NS(=O)(=O)c4ccc(Cl)s4)c(C(F)F)c3)c(=O)c2cc1F` [Example 85, 5-chloro-N-[({2-(difluoromethyl)-4-[7-fluoro-6-(methylamino)-1-oxoisoquinolin-2(1H)-yl]phenyl}amino)carbonyl]thiophene-2-sulfonamide]: the IC50 is less than 10 µM.
Regarding `CNc1cc2ccn(-c3ccc(NC(=O)NS(=O)(=O)c4ccc(Cl)s4)c(OCC4CC4)c3)c(=O)c2cc1F` [Example 86, 5-chloro-N-[({2-(cyclopropylmethoxy)-4-[7-fluoro-6-(methylamino)-1-oxoisoquinolin-2(1H)-yl]phenyl}amino)carbonyl]thiophene-2-sulfonamide], the IC50 was less than 10 µM.
Consider `CNc1cc2ccn(-c3ccc(NC(=O)NS(=O)(=O)c4ccc(Cl)s4)c(OC(F)(F)F)c3)c(=O)c2cc1F` [Example 87, 5-chloro-N-({[4-[7-fluoro-6-(methylamino)-1-oxoisoquinolin-2(1H)-yl]-2-(trifluoromethoxy)phenyl]amino}carbonyl)thiophene-2-sulfonamide], for which the IC50 is less than 10 µM.
With `CNc1cc2ccn(-c3ccc(NC(=O)NS(=O)(=O)c4ccc(Cl)s4)c(C(C)=O)c3)c(=O)c2cc1F` [Example 88, N-[({2-acetyl-4-[7-fluoro-6-(methylamino)-1-oxoisoquinolin-2(1H)-yl]phenyl}amino)carbonyl]-5-chlorothiophene-2-sulfonamide], the IC50 is less than 10 µM.
Next, `CNc1cc2ccn(-c3ccc(NC(=O)NS(=O)(=O)c4ccc(Cl)s4)c(OCC(F)(F)F)c3)c(=O)c2cc1F` [Example 89, 5-chloro-N-({[4-[7-fluoro-6-(methylamino)-1-oxoisoquinolin-2(1H)-yl]-2-(2,2,2-trifluoroethoxy)phenyl]amino}carbonyl)thiophene-2-sulfonamide]: less than 10 µM; `CCOc1cc(-n2ccc3cc(NC)c(F)cc3c2=O)ccc1NC(=O)NS(=O)(=O)c1ccc(Cl)s1` [Example 90, 5-chloro-N-[({2-ethoxy-4-[7-fluoro-6-(methylamino)-1-oxoisoquinolin-2(1H)-yl]phenyl}amino)carbonyl]thiophene-2-sulfonamide]: less than 10 µM.
